Experimental data from US11439148B2, “Pyrimidine derivatives” (SYNGENTA PARTICIPATIONS AG, priority 2017, dated 2022).
“And” between values parts separate entries of the source, which are not always exact repeats. Equal values may be shown once.

Tests used:
Assay type in all cases: in vivo
[1] = test system: Avena fatua (AVEFA); assay: Adjuvant efficacy with pinoxaden, glasshouse spray test; conditions: pinoxaden EC, mean over 7.5 and 15 g/ha and 3 replicates; adjuvant 0.2% v/v (none in No Adjuvant rows); % leaf area killed, 21 days after application; Tests 1-4 separate runs
Protocol: (§1) The efficacy of adjuvants 1-12 as adjuvants for the herbicide pinoxaden were tested in a glasshouse against four weed species, sown into standard soil in pots and cultivated under controlled conditions in a glasshouse (at 20/16° C. day/night; 16 hours light; 65% humidity). Pinoxaden was added to the spray tank as a standard EC (emulsifiable concentrate) formulation.
(§2) The spray tests were also carried out using pinoxaden in conjunction with adjuvants 1-12. The adjuvants were added to the spray solution at a rate of 0.2% v/v unless otherwise stated. All spray solutions also contained 10% w/w of iso-Propanol. The weed species and their BBCH growth stage at spraying were Avena fatua (AVEFA; growth stage 12), Lolium perenne (LOLPE; growth stage 13), Alopecurus myosuroides (ALOMY; growth stage 13), and Setaria viridis (SETVI; growth stage 13-14). Each spray test was replicated three times. The test plants were then grown in a glasshouse under controlled conditions (at 20/16° C. day/night; 16 hours light; 65% humidity) and watered twice a day. The efficacy of the herbicide was assessed visually and expressed as a percentage of the leaf area killed. Samples were assessed at a time period of 21 days following application. The results shown in Table 4 below are mean averages over the two rates of pinoxaden, and the three replicates.

[2] = test system: Alopecurus myosuroides (ALOMY); assay: as above; conditions: pinoxaden EC, mean over 7.5 and 15 g/ha and 3 replicates; adjuvant 0.2% v/v (none in No Adjuvant rows); % leaf area killed, 21 days after application; Tests 1-4 separate runs
Protocol: as §1, §2

[3] = test system: Lolium perenne (LOLPE); assay: as above; conditions: pinoxaden EC, mean over 7.5 and 15 g/ha and 3 replicates; adjuvant 0.2% v/v (none in No Adjuvant rows); % leaf area killed, 21 days after application; Tests 1-4 separate runs
Protocol: as §1, §2

[4] = test system: Setaria viridis (SETVI); assay: as above; conditions: pinoxaden EC, mean over 7.5 and 15 g/ha and 3 replicates; adjuvant 0.2% v/v (none in No Adjuvant rows); % leaf area killed, 21 days after application; Tests 1-4 separate runs
Protocol: as §1, §2

[5] = test system: four weed species (ALOMY, AVEFA, LOLPE, SETVI); assay: Adjuvant efficacy with pinoxaden, glasshouse spray test, average over all species; conditions: pinoxaden EC, mean over 7.5 and 15 g/ha, adjuvant 0.2% v/v (none in No Adjuvant rows), 21 days, average of ALOMY
Protocol: as §1, §2

[6] = test system: Ipomea hederacea (IPOHE); assay: Adjuvant efficacy with fomesafen, glasshouse spray test; conditions: fomesafen sodium salt SL, mean over 100 and 200 g/ha and 3 replicates; adjuvant 0.2% v/v (none in No Adjuvant rows); % leaf area killed, 21 days after application; Tests 1-4 separate runs
Protocol: as §1, with “fomesafen (as the sodium salt)” for “pinoxaden”, “24/18°” for “20/16°”, “light,” for “light;”, “Fomesafen sodium salt” for “Pinoxaden”, “SL (soluble” for “EC (emulsifiable”
(§3) The spray tests were also carried out using fomesafen in conjunction with adjuvants 1-12. Unless otherwise stated, the adjuvants were added to the spray solution at a rate of 0.2% v/v. All spray solutions also contained 12.5% v/v of iso-Propanol to normalise the retention of the sprays on the hydrophobic plant surfaces. The weed species and their BBCH growth stage at spraying were Abutilon theophrasti (ABUTH; growth stage 12-13), Chenopodium album (CHEAL; growth stage 15), Ipomea hederacea (IPOHE; growth stage 12), and Setaria viridis (SETVI; growth stage 14). Each spray test was replicated three times. The test plants were then grown in a glasshouse under controlled conditions (at 24/18° C. day/night; 16 hours light; 65% humidity) and watered twice a day.
(§4) The efficacy of the herbicide was assessed visually and expressed as a percentage of the leaf area killed. Samples were assessed at a time period of 21 days following application. The results shown in Table 2 below are mean averages over the two rates of fomesafen, the three replicates […].

[7] = test system: Abutilon theophrasti (ABUTH); assay: as above; conditions: fomesafen sodium salt SL, mean over 100 and 200 g/ha and 3 replicates; adjuvant 0.2% v/v (none in No Adjuvant rows); % leaf area killed, 21 days after application; Tests 1-4 separate runs
Protocol: as §1, with “fomesafen (as the sodium salt)” for “pinoxaden”, “24/18°” for “20/16°”, “light,” for “light;”, “Fomesafen sodium salt” for “Pinoxaden”, “SL (soluble” for “EC (emulsifiable”
as §3, §4

[8] = test system: Setaria viridis (SETVI); assay: as above; conditions: fomesafen sodium salt SL, mean over 100 and 200 g/ha and 3 replicates; adjuvant 0.2% v/v (none in No Adjuvant rows); % leaf area killed, 21 days after application; Tests 1-4 separate runs
Protocol: as §1, with “fomesafen (as the sodium salt)” for “pinoxaden”, “24/18°” for “20/16°”, “light,” for “light;”, “Fomesafen sodium salt” for “Pinoxaden”, “SL (soluble” for “EC (emulsifiable”
as §3, §4

[9] = test system: Chenopodium album (CHEAL); assay: as above; conditions: fomesafen sodium salt SL, mean over 100 and 200 g/ha and 3 replicates; adjuvant 0.2% v/v (none in No Adjuvant rows); % leaf area killed, 21 days after application; Tests 1-4 separate runs
Protocol: as §1, with “fomesafen (as the sodium salt)” for “pinoxaden”, “24/18°” for “20/16°”, “light,” for “light;”, “Fomesafen sodium salt” for “Pinoxaden”, “SL (soluble” for “EC (emulsifiable”
as §3, §4

[10] = test system: four weed species (ABUTH, CHEAL, DIGSA, SETVI); assay: Adjuvant efficacy with nicosulfuron, glasshouse spray test, average over all species; conditions: nicosulfuron WG, mean over 15 and 60 g/ha, adjuvant 0.2% v/v (none in No Adjuvant rows), 21 days, average of ABUTH
Protocol: as §1, with “nicosulfuron” for “pinoxaden”, “species” for “species,”, “24/18°” for “20/16°”, “Nicosulfuron” for “Pinoxaden”, “WG (water dispersible granule)” for “EC (emulsifiable concentrate)”
(§5) The spray tests were also carried out using nicosulfuron in conjunction with adjuvants 1-12. The adjuvant was added to the spray solution at a rate of 0.2% v/v. All spray solutions also contained 12.5% v/v of iso-Propanol. The weed species and their BBCH growth stage at spraying were Abutilon theophrasti (ABUTH; growth stage 13), Chenopodium album (CHEAL; growth stage 13-14), Digitaria sanguinalis (DIGSA; growth stage 11), and Setaria viridis (SETVI; growth stage 13). Each spray test was replicated three times. The test plants were then grown in a glasshouse under controlled conditions (at 24/18° C. day/night; 16 hours light; 65% humidity) and watered twice a day. The efficacy of the herbicide was assessed visually and expressed as a percentage of the leaf area killed. Samples were assessed at a time period of 21 days following application. The results shown in Table 1 below are mean averages over the two rates of nicosulfuron, and the three replicates.

[11] = test system: Abutilon theophrasti (ABUTH); assay: Adjuvant efficacy with nicosulfuron, glasshouse spray test; conditions: nicosulfuron WG, mean over 15 and 60 g/ha and 3 replicates; adjuvant 0.2% v/v (none in No Adjuvant rows); % leaf area killed, 21 days after application; Tests 1-4 separate runs
Protocol: as §1, with “nicosulfuron” for “pinoxaden”, “species” for “species,”, “24/18°” for “20/16°”, “Nicosulfuron” for “Pinoxaden”, “WG (water dispersible granule)” for “EC (emulsifiable concentrate)”
as §5

[12] = test system: Setaria viridis (SETVI); assay: as above; conditions: nicosulfuron WG, mean over 15 and 60 g/ha and 3 replicates; adjuvant 0.2% v/v (none in No Adjuvant rows); % leaf area killed, 21 days after application; Tests 1-4 separate runs
Protocol: as §1, with “nicosulfuron” for “pinoxaden”, “species” for “species,”, “24/18°” for “20/16°”, “Nicosulfuron” for “Pinoxaden”, “WG (water dispersible granule)” for “EC (emulsifiable concentrate)”
as §5

[13] = test system: Chenopodium album (CHEAL); assay: as above; conditions: nicosulfuron WG, mean over 15 and 60 g/ha and 3 replicates; adjuvant 0.2% v/v (none in No Adjuvant rows); % leaf area killed, 21 days after application; Tests 1-4 separate runs
Protocol: as §1, with “nicosulfuron” for “pinoxaden”, “species” for “species,”, “24/18°” for “20/16°”, “Nicosulfuron” for “Pinoxaden”, “WG (water dispersible granule)” for “EC (emulsifiable concentrate)”
as §5

[14] = test system: Digitaria sanguinalis (DIGSA); assay: as above; conditions: nicosulfuron WG, mean over 15 and 60 g/ha and 3 replicates; adjuvant 0.2% v/v (none in No Adjuvant rows); % leaf area killed, 21 days after application; Tests 1-4 separate runs
Protocol: as §1, with “nicosulfuron” for “pinoxaden”, “species” for “species,”, “24/18°” for “20/16°”, “Nicosulfuron” for “Pinoxaden”, “WG (water dispersible granule)” for “EC (emulsifiable concentrate)”
as §5

SMILES | Mean % Herbicidal Activity AVEFA [1] | Mean % Herbicidal Activity ALOMY [2] | Mean % Herbicidal Activity LOLPE [3] | Mean % Herbicidal Activity SETVI [4] | Mean % Herbicidal Activity Average over all Species [5] | Mean % Herbicidal Activity IPOHE [6] | Mean % Herbicidal Activity ABUTH [7] | Mean % Herbicidal Activity SETVI [8] | Mean % Herbicidal Activity CHEAL [9] | Mean % Herbicidal Activity Average over all Species [10] | Mean % Herbicidal Activity ABUTH [11] | Mean % Herbicidal Activity SETVI [12] | Mean % Herbicidal Activity CHEAL [13] | Mean % Herbicidal Activity DIGSA [14]
CCCCCCOc1cc(OCCOCCOC)ncn1 [Adjuvant 1] | 78% | 20% | 41% | 82% | 55% | 91% | 74% | 65% | 79% | 83% | 64% | 93% | 84% | 88%
CCCCCCOc1cc(OCCOCCOCCOCCOCCOCCOCCOCCOCCOCCOC)ncn1 [Adjuvant 2] | 56% | 16% | 28% | 87% | 47% | 95% | 57% | 53% | 68% | 82% | 61% | 97% | 80% | 89%
CCCCCCOc1cc(OCCOCCOCCOCCOCCOCCOCCOCCOCCOCCOCCOCCOCCOCCOCCOCCOCCOCCOCCOCCOC)ncn1 [Adjuvant 3] | 52% | 15% | 22% | 88% | 44% | 88% | 47% | 37% | 54% | 76% | 49% | 93% | 76% | 88%
CCCCCCCCCOc1cc(OCCOCCOCCOCCOCCOCCOCCOC)ncn1 [Adjuvant 4] | 78% | 18% | 30% | 82% | 52% | 93% | 51% | 53% | 45% | 73% | 48% | 94% | 78% | 70%
CCCCCCCCCOc1cc(OCCOCCOCCOCCOCCOCCOCCOCCOCCOCCOC)ncn1 [Adjuvant 5] | 69% | 10% | 21% | 63% | 41% | 64% | 60% | 49% | 55% | 63% | 49% | 91% | 63% | 49%
CCCCCCCCCCCCOc1cc(OCCOCCOCCOCCOCCOCCOCCOC)ncn1 [Adjuvant 6] | 82% | 23% | 62% | 87% | 63% | 64% | 31% | 25% | 80% | 71% | 38% | 91% | 83% | 74%
CCCCCCCCCCCCOc1cc(OCCOCCOCCOCCOCCOCCOCCOCCOCCOCCOC)ncn1 [Adjuvant 7] | 98% | 63% | 78% | 97% | 84% | 98% | 46% | 45% | 94% | 81% | 59% | 96% | 86% | 84%
CCCCCCCCCCCCCCCCOc1cc(OCCOCCOCCOCCOCCOCCOCCOCCOCCOCCOC)ncn1 [Adjuvant 8] | 94% and 78% and 84% | 2% and 15% and 22% | 87% and 42% and 73% | 94% and 88% and 89% | 69% and 56% and 67% | 92% and 97% and 51% | 53% and 75% and 36% | 17% and 65% and 13% | 78% and 65% and 73% | 80% and 85% and 86% | 53% and 66% and 74% | 96% (2×) and 95% | 85% (2×) and 83% | 87% and 93% and 89%
CCCCCCCCC=CCCCCCCCCOc1cc(OCCOCCOC)ncn1 [Adjuvant 9] | 83% | 17% | 40% | 91% | 58% | 88% | 52% | 64% | 64% | 80% | 57% | 95% | 82% | 88%
